Measured values published in US20260070945A1, “MACROCYCLIC IMMUNOMODULATORS” (Bristol-Myers Squibb Company, priority 2022, published 2026).
*1 amine or outer side, *2 acyl side, *3 side chain or, on linkers, in order; H or OH if unused. Where a SMILES comes first, the peptide text is derived from it. Bridges are numbered along the chain shown (N, C = ends). [ ]: non-standard residue; d: D form. The star is where a group is joined. ξ: configuration not given here. Phe(3-CF3) = N[C@@H](Cc1cccc(C(F)(F)F)c1)C(=O)O; Phe(4-COOH) = N[C@@H](Cc1ccc(C(=O)O)cc1)C(=O)O; Bip = N[C@@H](Cc1ccc(-c2ccccc2)cc1)C(=O)O; Phe(3-CN) = N#Cc1cccc(C[C@H](N)C(=O)O)c1; Phe(3-Me) = Cc1cccc(C[C@H](N)C(=O)O)c1; γGlu = O=C(O)[C@H](CCC(=O)[*:2])N[*:1]; Gly(decyl) = CCCCCCCCCC[C@H](N)C(=O)O; NH(CH2)12COOH = O=C(O)CCCCCCCCCCCCN*; NMeAEEA = CN(CCOCCOCC(=O)[*:2])[*:1]; Val(3-OH) = CC(C)(O)[C@H](N)C(=O)O; aIle = CC[C@@H](C)[C@H](N)C(=O)O; 4Pal = N[C@@H](Cc1ccncc1)C(=O)O; Cha = N[C@@H](CC1CCCCC1)C(=O)O; Cit = NC(=O)NCCC[C@H](N)C(=O)O; Ile(3ξ) = CCC(C)[C@H](N)C(=O)O; NMeN = CN[C@@H](CC(N)=O)C(=O)O; Thr(3ξ) = CC(O)[C@H](N)C(=O)O; 12Ado = NCCCCCCCCCCCC(=O)O; dDab = NCC[C@@H](N)C(=O)O; 4Abz = Nc1ccc(C(=O)O)cc1; Carboxymethyl = O=C(O)C*; NMeA = CN[C@@H](C)C(=O)O; Orn = NCCC[C@H](N)C(=O)O; Aun = NCCCCCCCCCCC(=O)O; Dab = NCC[C@H](N)C(=O)O; Abu = CC[C@H](N)C(=O)O; AEEA = NCCOCCOCC(=O)O

molecular target: T1, PD-1/PD-L1 interaction (PE-labeled human PD-L1-Ig binding to Jurkat cell line over-expressing human PD-1) (Homo sapiens, UniProt Q15116); test: Jurkat-PD-1 Cell Binding High-Content Screening Assay (CBA); conditions: Jurkat-hPD-1 cells, PE-labeled PD-L1-Ig 20 nM final; read-out: Jurkat HPD1 PDL1 IC50
T1 construct: expressed in transfected cells; host or cells: Jurkat
Method in brief: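 Jurkat-hPD-1 cells (8×10^3/well) in DMEM with 10% fetal calf serum were preincubated with compound for 2 h at 37 °C. PE-labeled PD-L1-Ig was then added at 20 nM final for 1 h. Cells were fixed in paraformaldehyde with Hoechst 33342, washed and imaged by high-content imaging.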

T1 sequence (Q15116 25-288): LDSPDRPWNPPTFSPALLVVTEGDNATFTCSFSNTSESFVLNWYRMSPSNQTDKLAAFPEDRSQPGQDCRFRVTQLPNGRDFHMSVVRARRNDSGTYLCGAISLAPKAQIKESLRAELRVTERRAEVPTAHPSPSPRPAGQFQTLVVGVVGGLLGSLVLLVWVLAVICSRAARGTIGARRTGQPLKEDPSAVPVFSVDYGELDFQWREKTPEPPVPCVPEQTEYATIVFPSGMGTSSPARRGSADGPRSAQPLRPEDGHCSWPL

| IC50 | Structure (SMILES) |
| --- | --- |
| 38.5 nM | CC(C)C[C@H]1NC(=O)[C@H](C)N(C)C(=O)[C@H](C(C)C)NC(=O)[C@H](Cc2ccc(-c3ccccc3)cc2)NC(=O)[C@H](C(C)C)NC(=O)[C@H](Cc2c[nH]c3ccccc23)NC(=O)[C@H](CC(=O)O)NC(=O)[C@H](Cc2ccc(C(=O)O)cc2)NC(=O)[C@H](Cc2ccc(OCC(=O)O)cc2)NC(=O)CSC[C@@H](C(=O)N[C@@H](CCCCN)C(=O)NCCOCCOCC(=O)NCCCCCCCCCCC(=O)O)NC(=O)[C@H](CO)NC(=O)[C@H](C(C)C)NC(=O)[C@H](CC2CCCCC2)NC(=O)[C@@H](CCN)NC1=O [Example 2112] ({CH2CO}-Y(Carboxymethyl)[Phe(4-COOH)]DWV[Bip]V[NMeA][dL][dDab][Cha]VSCK[AEEA][Aun]-OH; thioether N-14) |
| 63.9 nM | CC(C)C[C@H]1NC(=O)[C@H](C)N(C)C(=O)[C@H](Cc2ccc(OCC(=O)O)cc2)NC(=O)[C@H](Cc2ccc(-c3ccccc3)cc2)NC(=O)[C@H](Cc2ccc(OCC(=O)O)cc2)NC(=O)[C@H](Cc2c[nH]c3ccccc23)NC(=O)[C@H](CC(=O)O)NC(=O)[C@H](Cc2ccc(OCC(=O)O)cc2)NC(=O)[C@H]([C@@H](C)O)NC(=O)CSC[C@@H](C(=O)N[C@@H](CCN)C(=O)NCCOCCOCC(=O)NCCCCCCCCCCC(=O)O)NC(=O)[C@H](CC(N)=O)NC(=O)[C@H](C(C)C)NC(=O)[C@H](CC2CCCCC2)NC(=O)[C@H](CCC(=O)O)NC1=O [Example 1401] ({CH2CO}-TY(Carboxymethyl)DWY(Carboxymethyl)[Bip]Y(Carboxymethyl)[NMeA][dL]E[Cha]VNC[Dab][AEEA][Aun]-OH; thioether N-14) |
| 24.9 nM | CC[C@@H](C)[C@@H]1NC(=O)[C@H](Cc2ccc(-c3ccccc3)cc2)NC(=O)[C@H](C(C)C)NC(=O)[C@H](Cc2c[nH]c3ccccc23)NC(=O)[C@H](CC(=O)O)NC(=O)[C@H](Cc2ccc(OCC(=O)O)cc2)NC(=O)[C@H](Cc2ccncc2)NC(=O)CSC[C@@H](C(=O)NCCOCCOCC(=O)N[C@@H](CCC(=O)NCCOCCOCC(=O)N[C@@H](CCC(=O)NCCOCCOCC(=O)N[C@@H](CCCN)C(=O)NCCCCCCCCCCC(=O)O)C(=O)O)C(=O)O)NC(=O)[C@H](CO)NC(=O)[C@H](C(C)C)NC(=O)[C@H](CC2CCCCC2)NC(=O)[C@H](CC(N)=O)NC(=O)[C@@H](CC(C)C)NC(=O)[C@H](C)N(C)C1=O [Example 2019] ({CH2CO}-[4Pal]Y(Carboxymethyl)DWV[Bip][aIle][NMeA][dL]N[Cha]VSC[AEEA][γGlu][AEEA][γGlu][AEEA][Orn][Aun]-OH; thioether N-14) |
| 26 nM | CC(C)C[C@H]1NC(=O)[C@H](CC(N)=O)N(C)C(=O)[C@H](C(C)C)NC(=O)[C@H](Cc2ccc(-c3ccccc3)cc2)NC(=O)[C@H](C(C)C)NC(=O)[C@H](Cc2c[nH]c3ccccc23)NC(=O)[C@H](CC(=O)O)NC(=O)[C@H](Cc2ccc(OCC(=O)O)cc2)NC(=O)[C@H](C(C)O)NC(=O)CSC[C@@H](C(=O)N[C@@H](CCN)C(=O)NCCCCCCCCCCC(=O)O)NC(=O)[C@H](C(C)O)NC(=O)[C@H](C(C)C)NC(=O)[C@H](CC2CCCCC2)NC(=O)[C@H](CCN)NC1=O (stereo partly drawn) [Example 2243] ({CH2CO}-[Thr(3ξ)]Y(Carboxymethyl)DWV[Bip]V[NMeN][dL][Dab][Cha]V[Thr(3ξ)]C[Dab][Aun]-OH; thioether N-14) |
| 7 nM | CC[C@@H]1NC(=O)[C@H](Cc2cccc(C)c2)NC(=O)[C@H](CC(=O)O)NC(=O)[C@H](Cc2ccc(OCC(=O)O)cc2)NC(=O)[C@H](CCN)NC(=O)CSC[C@@H](C(=O)N[C@@H](CCN)C(=O)NCCCCCCCCCCC(=O)O)NC(=O)[C@H](CO)NC(=O)[C@H](C(C)(C)O)NC(=O)[C@H](CC2CCCCC2)NC(=O)[C@H](CCN)NC(=O)[C@@H](CC(C)C)NC(=O)[C@H](C)N(C)C(=O)[C@H](Cc2ccc(OCC(=O)O)cc2)NC(=O)[C@H](Cc2ccc(-c3ccccc3)cc2)NC1=O [Example 1308] ({CH2CO}-[Dab]Y(Carboxymethyl)D[Phe(3-Me)][Abu][Bip]Y(Carboxymethyl)[NMeA][dL][Dab][Cha][Val(3-OH)]SC[Dab][Aun]-OH; thioether N-14) |
| 111 nM | Cc1cccc(C[C@@H]2NC(=O)[C@H](CC(=O)O)NC(=O)[C@H](Cc3ccc(C(=O)O)cc3)NC(=O)[C@H](Cc3ccncc3)NC(=O)CSC[C@@H](C(=O)N[C@@H](CCN)C(=O)NCCOCCOCC(=O)NCCCCCCCCCCC(=O)O)NC(=O)[C@H](CCC(=O)O)NC(=O)[C@H](C(C)(C)O)NC(=O)[C@H](CC3CCCCC3)NC(=O)[C@H](CCN)NC(=O)[C@@H](CC(C)C)NC(=O)[C@H](C)N(C)C(=O)[C@H](Cc3ccc(OCC(=O)O)cc3)NC(=O)[C@H](Cc3ccc(-c4ccccc4)cc3)NC(=O)[C@H](Cc3ccc(OCC(=O)O)cc3)NC2=O)c1 [Example 1427] ({CH2CO}-[4Pal][Phe(4-COOH)]D[Phe(3-Me)]Y(Carboxymethyl)[Bip]Y(Carboxymethyl)[NMeA][dL][Dab][Cha][Val(3-OH)]EC[Dab][AEEA][Aun]-OH; thioether N-14) |
| 24.8 nM | CC(C)C[C@H]1NC(=O)[C@H](C)N(C)C(=O)[C@H](CCC(N)=O)NC(=O)[C@H](Cc2ccc(-c3ccccc3)cc2)NC(=O)[C@H](Cc2ccc(C(=O)O)cc2)NC(=O)[C@H](Cc2cccc(C(F)(F)F)c2)NC(=O)[C@H](CC(=O)O)NC(=O)[C@H](Cc2ccc(OCC(=O)O)cc2)NC(=O)[C@H](Cc2ccc(C(=O)O)cc2)NC(=O)CSC[C@@H](C(=O)N[C@@H](CCN)C(=O)NCCCCCCCCCCCCC(=O)O)NC(=O)[C@H](CC(=O)O)NC(=O)[C@H](C(C)(C)O)NC(=O)[C@H](CC2CCCCC2)NC(=O)[C@H](CCN)NC1=O [Example 1142] ({CH2CO}-[Phe(4-COOH)]Y(Carboxymethyl)D[Phe(3-CF3)][Phe(4-COOH)][Bip]Q[NMeA][dL][Dab][Cha][Val(3-OH)]DC[Dab]-{NH(CH2)12COOH}; thioether N-14) |
| 26.3 nM | Cc1cccc(C[C@@H]2NC(=O)[C@H](CC(=O)O)NC(=O)[C@H](Cc3ccc(OCC(=O)O)cc3)NC(=O)[C@H](C(C)O)NC(=O)CSC[C@@H](C(=O)N(C)CCOCCOCC(=O)NCCCCCCCCCCC(=O)O)NC(=O)[C@H](CCCNC(N)=O)NC(=O)[C@H](C(C)C)NC(=O)[C@H](CC3CCCCC3)NC(=O)[C@H](CCN)NC(=O)[C@@H](CC(C)C)NC(=O)[C@H](C)N(C)C(=O)[C@H](C(C)C)NC(=O)[C@H](Cc3ccc(-c4ccccc4)cc3)NC(=O)[C@H](C(C)C)NC2=O)c1 (stereo partly drawn) [Example 2359] ({CH2CO}-[Thr(3ξ)]Y(Carboxymethyl)D[Phe(3-Me)]V[Bip]V[NMeA][dL][Dab][Cha]V[Cit]C[NMeAEEA][Aun]-OH; thioether N-14) |
| 66.7 nM | CC(C)C[C@H]1NC(=O)[C@H](C)N(C)C(=O)[C@H](Cc2ccc(OCC(=O)O)cc2)NC(=O)[C@H](Cc2ccc(-c3ccccc3)cc2)NC(=O)[C@H](Cc2ccc(C(=O)O)cc2)NC(=O)[C@H](Cc2cccc(C#N)c2)NC(=O)[C@H](CC(=O)O)NC(=O)[C@H](Cc2ccc(OCC(=O)O)cc2)NC(=O)[C@H]([C@@H](C)O)NC(=O)CSC[C@@H](C(=O)N[C@@H](CCN)C(=O)NCCCCCCCCCCC(=O)O)NC(=O)[C@H]([C@@H](C)O)NC(=O)[C@H](C(C)C)NC(=O)[C@H](CC2CCCCC2)NC(=O)[C@H](CCN)NC1=O [Example 1233] ({CH2CO}-TY(Carboxymethyl)D[Phe(3-CN)][Phe(4-COOH)][Bip]Y(Carboxymethyl)[NMeA][dL][Dab][Cha]VTC[Dab][Aun]-OH; thioether N-14) |

| Structure (SMILES) | IC50 |
| --- | --- |
| CC(C)C[C@@H]1NC(=O)[C@H](Cc2c[nH]c3ccccc23)NC(=O)[C@H](CC(=O)O)NC(=O)[C@H](Cc2ccncc2)NC(=O)[C@H](Cc2ccc(OCC(=O)O)cc2)NC(=O)CSC[C@@H](C(=O)Nc2ccc(C(=O)NCCCCCCCCCCC(=O)O)cc2)NC(=O)[C@H](CCCN)NC(=O)[C@H](C(C)C)NC(=O)[C@H](CC2CCCCC2)NC(=O)[C@H](CCN)NC(=O)[C@@H](CC(C)C)NC(=O)[C@H](C)N(C)C(=O)[C@H](C(C)C)NC(=O)[C@H](Cc2ccc(-c3ccccc3)cc2)NC1=O [Example 1213] ({CH2CO}-Y(Carboxymethyl)[4Pal]DWL[Bip]V[NMeA][dL][Dab][Cha]V[Orn]C[4Abz][Aun]-OH; thioether N-14) | 276 nM |

same assay, conditions: PE-labeled PD-L1-Ig 20 nM final, Jurkat-hPD-1 cells; read-out: Jurkat HPD1 PDL1 IC50

| IC50 | Structure (SMILES) |
| --- | --- |
| 13 nM | CCC(C)[C@@H]1NC(=O)[C@H](Cc2ccc(-c3ccccc3)cc2)NC(=O)[C@H](CC(C)C)NC(=O)[C@H](Cc2c[nH]c3ccccc23)NC(=O)[C@H](CC(=O)O)NC(=O)[C@H](Cc2ccc(OCC(=O)O)cc2)NC(=O)[C@H](C(C)O)NC(=O)CSC[C@@H](C(=O)N[C@@H](CCN)C(=O)NCCOCCOCC(=O)NCCCCCCCCCCC(=O)O)NC(=O)[C@H](CCC(=O)O)NC(=O)[C@H](C(C)(C)O)NC(=O)[C@H](CC2CCCCC2)NC(=O)[C@H](CCN)NC(=O)[C@@H](CC(C)C)NC(=O)[C@H](C)N(C)C1=O (stereo partly drawn) [Example 2509] ({CH2CO}-[Thr(3ξ)]Y(Carboxymethyl)DWL[Bip][Ile(3ξ)][NMeA][dL][Dab][Cha][Val(3-OH)]EC[Dab][AEEA][Aun]-OH; thioether N-14) |
| 90.3 nM | CCCCCCCCCC[C@@H]1NC(=O)[C@H](C(C)C)NC(=O)[C@H](CC2CCCCC2)NC(=O)[C@H](CCN)NC(=O)[C@@H](CC(C)C)NC(=O)[C@H](C)N(C)C(=O)[C@H](Cc2ccc(OCC(=O)O)cc2)NC(=O)[C@H](Cc2ccc(-c3ccccc3)cc2)NC(=O)[C@H](Cc2ccc(OCC(=O)O)cc2)NC(=O)[C@H](Cc2cccc(C)c2)NC(=O)[C@H](CC(=O)O)NC(=O)[C@H](Cc2ccc(OCC(=O)O)cc2)NC(=O)[C@H]([C@@H](C)O)NC(=O)CSC[C@@H](C(=O)N[C@@H](CCN)C(=O)NCCOCCOCC(=O)NCCCCCCCCCCCC(=O)O)NC1=O [Example 2673] ({CH2CO}-TY(Carboxymethyl)D[Phe(3-Me)]Y(Carboxymethyl)[Bip]Y(Carboxymethyl)[NMeA][dL][Dab][Cha]V[Gly(decyl)]C[Dab][AEEA][12Ado]-OH; thioether N-14) |
